Results reported in patent US10433551B2, “3-pyridyloxyphenyldihydrouracil compound and use thereof” (Sumitomo Chemical Company, Limited, priority 2016, dated 2019).

Tests used:
Assay type in all cases: cell-based
[1] = system: cucumber phytophthora blight fungi (Phytophthora capsici); assay: Test for controlling cucumber phytophthora blight fungi, growth in titer plate (absorbance 600 nm); details: Test Example 1; 4.5 mg in 100 μL DMSO, 1 μL in 150 μL PDB medium with zoospores; 27° C., three days
Experimental: (§1) In the test examples 1 to 4, a non-treated area means an area in which a test was conducted in the same manner as each test example, except that dimethyl sulfoxide was dispensed in place of the present compound diluted with dimethyl sulfoxide.
Four point five (4.5) milligrams of the present compound was diluted with 100 μL of dimethyl sulfoxide. One (1) μL portion of the diluted liquid was dispensed into a titer plate (96 wells), and thereto was then dispensed 150 μL of a potato dextrose broth medium (PDB medium) containing zoospores of cucumber phytophthora blight fungi (Phytophthora capsici). This plate was cultured at 27° C. for three days, thereby allowing the cucumber phytophthora blight fungi to undergo proliferation, and the absorbance at 600 nm of each well of the titer plate was then measured to determine a degree of growth of the cucumber phytophthora blight fungi. The efficacy was calculated from the determined degree of growth by the below-mentioned “Equation 1”. As a result, the efficacy of the Present compound was 90% or more. Efficacy=100×(X−Y)/X “Equation 1” where X: Degree of fungal growth in non-treated area Y: Degree of fungal growth in treated area

[2] = system: damping-off fungi (Pythium ultimum); assay: Test for controlling damping-off fungi, growth in titer plate (absorbance 600 nm); details: 1 μL in 150 μL Czapek medium with mycelial suspension, 23° C., five days
Experimental: as §1
(§2) Four point five (4.5) milligrams of the present compound was diluted with 100 μL of dimethyl sulfoxide. One (1) μL portion of the diluted liquid was dispensed into a titer plate (96 wells), and thereto was then dispensed 150 μL of a potato dextrose broth medium (PDB medium) containing zoospores of cucumber phytophthora blight fungi (Phytophthora capsici). This plate was cultured at 27° C. for three days, thereby allowing the cucumber phytophthora blight fungi to undergo proliferation, and the absorbance at 600 nm of each well of the titer plate was then measured to determine a degree of growth of the cucumber phytophthora blight fungi. The efficacy was calculated from the determined degree of growth by the below-mentioned “Equation 1”. […]
(§3) Four point five (4.5) milligrams of the present compound was diluted with 100 μL of dimethyl sulfoxide. […] This plate was cultured at 23° C. for five days, thereby allowing the damping-off fungi to undergo proliferation, and the absorbance at 600 nm of each well of the titer plate was then measured to determine a degree of growth of the damping-off fungi. […]

[3] = system: barley scald fungi (Rhynchosporium secalis); assay: Test for controlling barley scald fungi, growth in titer plate (absorbance 600 nm); details: Test Example 4; 4.5 mg in 100 μL DMSO, 1 μL in 150 μL PDB medium with spores; 18° C., seven days
Experimental: as §1, §2
as §3, with “at 18°” for “at 23°”, “for seven” for “for five”, “the barley scald” for “the damping-off”

Measured: efficacy

CCOC(=O)COc1ncccc1Oc1cc(N2C(=O)CC(O)(C(F)(F)F)NC2=O)c(F)cc1Cl (stereo not shown) [Present compound]
≥ 90%: [1] | [2]; Test Example 2, 4.5 mg in 100 μL DMSO | [2]; Test Example 3, 1.12 mg in 100 μL DMSO | [3]
